# Results taken from patent US20230390315A1, “COMPOSITIONS AND METHODS FOR TREATING ISCHEMIC CONDITIONS” (The Regents of the University of California, priority 2020, published 2023).
# Entries after “also recorded” stand apart in the source; their conditions may differ.
# Legend:
# [1] = tested on: bovine choroidal microvascular endothelial cells (BCEC); assay: BCEC proliferation assay; format: cell-based; details: for stimulation of BCEC proliferation by structurally related molecules: with or without VEGF, 0.04 μM-5 mM; for block of ManN effects on BCEC proliferation by monosaccharides: monosaccharide at maximum 1:10 molar ratio, added after 2 hours ManN; for stimulatory effect of hexosamines on BCEC proliferation: tested alongside ManN, FIG. 1D
# Experimental: Proliferation assays with BCECs and BRECs were performed. Log-phase growing BCECs or BRECs (passage <10) were trypsinized, re-suspended and seeded in 96-well plates (no coating) in low-glucose DMEM supplemented with 10% bovine calf serum, 2 mM glutamine, and antibiotics (growth medium), at a density of 1200-1500 cells per well in 200 μl volume. All reagents were added at the indicated final concentrations. […] Fluorescence was measured at 530 nm excitation wavelength and 590 nm emission wavelength. The experiments were repeated at least three times. […] On each 96-well plate, untreated and VEGF-treated (10/ng/ml) wells were included to monitor plate-to-plate variations. 20% methanol or 0.05% DMSO served as negative controls. 0.05% DMSO served as negative controls when Cas was tested in these cells. Human […] and human adult […] were split into Gelatin-coated 96 wells (2000 cells per well) in low glucose DMEM containing 10% FBS. 1200 cells/well was set up for proliferation assay in low glucose media containing FBS. […] HUVEC (p7-10) were grown on gelatin-coated plate until it reached 70-80% confluency. On the day of the assay, cells were dissociated with 0.05% trypsin, which was neutralized with 0.5% FBS-containing EBM. Cells were briefly spun and then re-suspended in 0.5% FBS-media. Cells were counted and plated in 96-well, 1000 cells/well. Triplicate wells were used for each treatment. Data were collected at day 3, and then cells were fixed in 4% paraformaldehyde for 15 min before adding crystal violet. Cell-covered areas were quantified after taking pictures by Image J software.
# Bip, CHOP and ATF-6 = assay: Western blot of UPR responsive proteins in BCECs; format: cell-based, bovine; details: for prevention of CHOP induction by ManN: 2 mM 4-PBA or 500 uM TUDCA, ManN at 400 uM and 5 mM; for restoration of ATF-6 expression: ManN at 400 uM
# Experimental: (§1) Cells were allowed to reach ˜80% confluency in 12-well plates. […] At various time points, plates were taken out of the incubator and kept on ice. Cell monolayers were first washed once with ice-cold PBS before lysis with 250 μl of Pierce RIPA buffer (ThermoFisher Scientific, Rockford, IL) or use 50 mM Tris-HCl (pH 7.6), 150 mM NaCl, 10% Glycerol, 1% NP-40 containing protease/Phosphatase inhibitor cocktail (100×) (Cell signaling, #5872). Lysates were collected and mixed with 4×Bolt LDS Sample Buffer (Novex, Carlsbad, CA) in the presence of Halt protease inhibitors and phosphatase inhibitor cocktail (ThermoFisher scientific, #NP0007). The samples were subjected to SDS-PAGE (Bolt 4-12% Bis-Tris Plus, Invitrogen) using Bolt MES SDS running buffer or NuPAGE 3-8% Tris-Acetate gel using Tris-Acetate SDS running buffer (Novex). HUVECs (passage 6-8) were plated in EBM-2 basal medium (Lonza) with 0.2% FBS. […] Equal amounts of protein lysates were analyzed by SDS-PAGE and blotted with the indicated antibodies. Proteins were transferred using Tris-Glycine buffer with 20% Methanol (Proteonomics grade) (Apex BioResearch Products). Membranes were first incubated with 5% milk in TBST, pH 7.6 (TEKnova, Hollister, CA), followed by blotting with primary and secondary antibodies. ECL anti-rabbit IgG, horseradish peroxidase linked whole antibody from donkey or sheep anti-mouse were obtained from GE Healthcare (UK limited). SuperSignal West Dura Extended Duration substrate was from ThermoFisher Scientific. In some cases, the same PVDF membranes were stripped by 8-min incubation in the Restore Plus Western Blot Stripping Buffer (ThermoFisher Scientific) to show total specific protein expression, followed by second stripping for β-actin expression.
# [2] = tested on: BCEC confluent monolayers; assay: BCEC scratch assay; format: cell-based, bovine; details: over 48 hours relative to control
# Experimental: BCECs (passage 6-10) and HUVEC (passage 6-8) were used in this assay. Cells were grown until about 80% confluency in 6-well plates, washed twice with PBS and then starved in serum-free DMEM (low Glucose, Hyclone) for 5 hrs before making a “scratch” using 1 ml tip. Cell monolayers were briefly washed once with serum-free media, followed by various treatments in media containing 1% FBS. 48 hrs later, the assay was stopped by adding 2 ml 4% paraformaldehyde. 20 min later, fixed cells were stained with 1 ml Crystal Violet (Sigma). Plates were washed gently under the running tap water and air-dried before taking pictures. Images were acquired by ZEISS Discovery […] microscopy equipped with […] camera. Quantification of wound closure was done using AxioVision LE Rel.4.4 software. Six images were taken for each sample and six measurements (in pixel) were made on each image using AxioVision LE Rel.4.4 software.
# [3] = tested on: ERK, AKT, mTOR, CREB, ACC and eNOS; assay: Western blot of signal transduction pathways in BCECs; format: cell-based, bovine
# Experimental: as §1
# ERK and AKT = assay: Western blot of ERK and AKT activation in HUVEC and hDMVECs; format: cell-based, human; details: hDMVECs
# Experimental: as §1, with “80%” for “˜80%”, “ECL anti-rabbit IgG, horseradish peroxidase linked whole antibody from donkey or sheep anti-mouse were obtained from GE Healthcare (UK limited). SuperSignal West Dura Extended Duration substrate was from ThermoFisher Scientific. In some cases, the same PVDF membranes were stripped by 8-min incubation in the Restore Plus Western Blot Stripping Buffer (ThermoFisher Scientific) to show total specific protein expression, followed by second stripping for β-actin expression.” left out
# JNK/c-Jun = assay: Western blot of JNK pathway activation in BCECs; format: cell-based, bovine; details: media without growth factors
# Experimental: as §1, with “80%” for “˜80%”
# VEGFR2 = assay: Western blot of VEGFR2 molecular mass in BCECs and BRECs; format: cell-based, bovine; details: 24 hours; SDS-PAGE
# Experimental: Glycerol-free PNGase F was obtained from New England Biolabs (Ipswich, MA). Briefly, BCECs were lysed with NP-40 containing proteinase inhibitors (Thermo Scientific, Waltham, MA). Lysates were cleared at 4° C. at 5000 g for 25 mins. Total protein content was measured using Pierce BCA protein assay kit (ThermoScientific). […] of protein was mixed with 10× denaturing buffer and H2O to a total volume of […]. Glycoproteins were denatured at 100° C. for 10 mins, followed by adding Glycobuffer and PNGase F. The reaction was carried out at 37° C. for 2 hr.
# as §1
# [4] = mouse, in vivo, po
# retinal vasculature = assay: Retinal neovascularization after intravitreal injection; format: in vivo, mouse; details: intravitreal 500 ng ManN or Kif, 200 ng bFGF; seven days
# Experimental: Assessment of retinal angiogenesis following intravitreal administration was done. Briefly, 6-8 weeks old C57BL/6 male mice were randomly allocated to different groups and anesthetized with ketamine/Xylazine cocktail. The indicated amounts of ManN, Kif or bFGF (R&D systems, AF-233-NA) in 1 μl of PBS and PBS vehicle control were injected intravitreally with a 33-gauge Hamilton syringe. Seven days after injection, animals were euthanized. Eyes were then enucleated and fixed in 4% paraformaldehyde (PFA) for 30 mins. Retinas were separated and stained with anti-CD31 immunofluorescence (IF) to evidence the vasculature. Evaluations were performed by an investigator blinded to the treatment. For CD31 IF, rat anti-mouse antibody (BD Biosciences, CAT #550274) was diluted 1:100 and incubated overnight at 4° C. After 4-hour incubation with the Alexa Fluor-488-conjugated anti-rat antibody (Life Technologies, A11006), whole mounts were imaged via the 488 nm channel using A1R Confocal STORM super-resolution system (Nikon). Quantification of vascular density in choroids and retina was carried out by Image J. Each experiment was repeated three times with similar results, and each treatment group consists of 5 individual samples.
compound,measurement,setting,value
"O=C(O)CCCc1ccccc1 [4-PBA, 4-phenylbutyric acid]",additivity between ManN and VEGF after chemical chaperon pre-treatment,[1]; 1 mM 4-PBA,largely abolished
same,reversal of bell-shaped activity of ManN on BCEC proliferation by chemical chaperon,"[1]; pre-treating with 1 mM 4-PBA for 4 hours, absence or presence of VEGF",effectively reverse the bell-shaped activity of ManN
same,prevention of CHOP induction by ManN,"Bip, CHOP and ATF-6",prevent the induction of CHOP expression
same,restoration of ATF-6 expression,"Bip, CHOP and ATF-6",restore the expression of ATF-6
"O[C@H]1[C@H](O)[C@@H](O)CN2CC[C@H](O)[C@H]12 [Cas, Castanospermine, reference compound]",BCEC proliferation with N-glycosylation inhibitors,[1]; absence or presence of 5 ng/ml VEGF,stimulated in a dose-dependent fashion
same,activity of glycosylation inhibitors in BCEC scratch assay,[2],significant activity
same,activation of ERK,"[3]; 40 uM, BCECs",less obvious; also recorded: did not activate ERK
same,activation of ERK,ERK and AKT,less obvious
same,activation of JNK pathway (JNK and downstream c-Jun),JNK/c-Jun,able to activate the JNK pathway
same,VEGFR2 molecular mass after glycosylation inhibitor treatment,VEGFR2,reduction in VEGFR2 molecular mass
same,Bip expression with glycosylation inhibitors,"Bip, CHOP and ATF-6; media without growth factors for 24 hours",dose-dependent induction of Bip expression
"Cl.NCC(=O)[C@@H](O)[C@H](O)[C@H](O)CO [D-isoglucosamine, 1-Amino-1-deoxy-D-Fructose hydrochloride]",stimulation of BCEC proliferation by structurally related molecules,[1],None of these molecules stimulated BCEC proliferation
"N[C@@H]1C(O)O[C@H](COP(=O)(O)O)[C@@H](O)[C@@H]1O (stereo partly drawn) [ManN-6p, ManN-6-phosphate]",ManN-6p in ischemic leg muscle,[4],0.91+/−0.24 nmol/mg protein
"CC(=O)N[C@@H]1C(O)O[C@H](CO)[C@@H](O)[C@@H]1O (stereo partly drawn) [ManNAc, N-acetyl-Mannosamine, reference compound]","activation of ERK, AKT, mTOR, CREB, ACC and eNOS by other agents","[3]; 40 μM, compared with ManN",induced a similar activation
"CC(=O)N[C@H]1[C@H]([C@H](O)[C@H](O)CO)OC(O)(C(=O)O)C[C@@H]1O (stereo partly drawn) [N-Acetyl-neuraminic acid, N-Acetylneuraminic acid]",stimulation of BCEC proliferation by structurally related molecules,[1],None of these molecules stimulated BCEC proliferation
"C[C@H](CCC(=O)NCCS(=O)(=O)O)[C@H]1CC[C@H]2[C@@H]3[C@@H](O)C[C@@H]4C[C@H](O)CC[C@]4(C)[C@H]3CC[C@]12C [TUDCA, tauroursodeoxycholic acid]",prevention of CHOP induction by ManN,"Bip, CHOP and ATF-6",not
same,restoration of ATF-6 expression,"Bip, CHOP and ATF-6",much weaker
"C[C@H](O)[C@@H](O)[C@@H](O)[C@H](O)C=O [fucose, reference compound]",block of ManN effects on BCEC proliferation by monosaccharides,[1],not
"N[C@H]1C(O)O[C@H](CO)[C@H](O)[C@@H]1O (stereo partly drawn) [galactosamine, D-(+)-Galactosamine]",stimulatory effect of hexosamines on BCEC proliferation,[1],none of these hexosamines had significant stimulatory effects
"O=C[C@H](O)[C@@H](O)[C@@H](O)[C@H](O)CO [galactose, reference compound]",block of ManN effects on BCEC proliferation by monosaccharides,[1],not
"N[C@H]1C(O)O[C@H](CO)[C@@H](O)[C@@H]1O (stereo partly drawn) [glucosamine, D-(+)-Glucosamine]",stimulatory effect of hexosamines on BCEC proliferation,[1],none of these hexosamines had significant stimulatory effects
"CNC[C@H](O)[C@@H](O)[C@H](O)[C@H](O)CO [meglumine, Meglumine]",stimulation of BCEC proliferation by structurally related molecules,[1],None of these molecules stimulated BCEC proliferation
"C[C@@H](O[C@H]1[C@H](O)[C@@H](CO)OC(O)[C@@H]1N)C(=O)O (stereo partly drawn) [muramic acid, Muramic acid]",stimulation of BCEC proliferation by structurally related molecules,[1],None of these molecules stimulated BCEC proliferation
"bFGF: bFGF growth factor purchased from R&D systems, positive control",increase in density of retinal vessels compared to PBS group,retinal vasculature,about 35%
